Values of other authors as cited in patent publication US20040204492A1, “Topical composition and method for treating seborrheic dermatitis” (Healthpoint, Ltd., priority 2003, published 2004).

System: sulfonamide sensitive gram-positive and gram-negative microorganisms
Conditions: microorganisms commonly isolated from secondary cutaneous infections

Question: For `CC(=O)NS(=O)(=O)c1ccc(N)cc1.O.[Na]` [Sulfacetamide sodium, Acetamide N-[(4-aminophenyl)sulfonyl]-, monosodium salt, monohydrate], which bacteriostatic effect is on record?
Answer: exerts a bacteriostatic effect
